Molecules are shown by their SMILES.

For experiment [1], the target named is T1, muscarinic acetylcholine receptors of human m1 (Homo sapiens, UniProt P11229).
T1 construct: purchased Receptor Biology, Inc; host or cells: CHO cells
T1 sequence (P11229 1-460): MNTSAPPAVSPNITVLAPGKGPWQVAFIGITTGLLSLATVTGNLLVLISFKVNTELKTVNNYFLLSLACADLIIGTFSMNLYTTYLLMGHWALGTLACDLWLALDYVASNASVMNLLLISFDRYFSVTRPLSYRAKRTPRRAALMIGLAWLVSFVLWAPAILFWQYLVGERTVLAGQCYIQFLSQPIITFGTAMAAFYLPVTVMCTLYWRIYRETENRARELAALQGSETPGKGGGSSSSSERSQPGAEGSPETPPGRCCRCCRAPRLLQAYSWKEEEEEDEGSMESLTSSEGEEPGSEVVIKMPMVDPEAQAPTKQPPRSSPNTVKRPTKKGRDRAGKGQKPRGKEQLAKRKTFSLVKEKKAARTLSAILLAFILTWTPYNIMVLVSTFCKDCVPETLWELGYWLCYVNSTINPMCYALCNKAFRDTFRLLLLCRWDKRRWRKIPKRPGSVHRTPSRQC
Description: Test on inhibition of binding to muscarinic receptors (m1). The following applies: human m1 expressed in CHO cells, 0.2 nM [3H]-N-methylscopolamine, 120 minutes at room temperature. Here is the method: (§1) The test was performed according to a modification of the method of Hargreaves, et al. (Br. J. Pharmacol. 107: 494–501, 1992). Namely, muscarinic acetylcholine receptors of human m1, m2, m3, m4 and m5 expressed in CHO cells (Receptor Biology, Inc.) were incubated with 0.2 nM [^3H]-N-methylscopolamine (82Ci/mmol, New England Nuclear, Inc.) and a test compound, either in 0.5 ml of 50 mM Tris-HCI, 10 mM MgCl2, 1 mM EDTA solution (pH 7.4) (human m1, m3 and m5 samples) or in 0.5 ml of 50 mM tris-HCl, 10 mM MgCl2, 1 mM EDTA, 5000 nM GTPγS solution (pH 7.4) (human m2 and m4 samples) for 120 minutes at room temperature (about 20–25° C.), followed by suction filtration over a glass filter (UniFilter plate-GF/C; Packard). Then the filter was washed four times with 1 ml of ice-cooled Tris-HCI buffer and dried at 50° C. for an hour. After adding a scintillator (Microscinti 0; Packard), the radioactivity of [^3H]-N-methylscopolamine binding to the filter was counted with a microplate scintillation counter (TopCount; Packard). Non-specific receptor binding of [^3H]-N-methylscopolamine was measured by adding 1 μM N-methylscopolamine. According to the method of Cheng and Prusoff (Biochem. Pharmacol. 22: 3099–3108, 1973), the binding affinity of each sample compound of the present invention for muscarinic receptors is expressed by inhibition constant (Ki) which is calculated from the concentration (IC50) of the sample compound which achieves 50% inhibition of binding of [^3H]-N-methylscopolamine, the labeled ligand. Smaller inhibition constant (Ki) represents stronger tendency to bind to muscarinic receptors, i.e., a higher binding inhibitory effect.

Experiment [2] addresses T2, muscarinic acetylcholine receptors of human m2 (Homo sapiens, UniProt P08172).
T2 construct: purchased Receptor Biology, Inc; host or cells: CHO cells
T2 sequence (P08172 1-466): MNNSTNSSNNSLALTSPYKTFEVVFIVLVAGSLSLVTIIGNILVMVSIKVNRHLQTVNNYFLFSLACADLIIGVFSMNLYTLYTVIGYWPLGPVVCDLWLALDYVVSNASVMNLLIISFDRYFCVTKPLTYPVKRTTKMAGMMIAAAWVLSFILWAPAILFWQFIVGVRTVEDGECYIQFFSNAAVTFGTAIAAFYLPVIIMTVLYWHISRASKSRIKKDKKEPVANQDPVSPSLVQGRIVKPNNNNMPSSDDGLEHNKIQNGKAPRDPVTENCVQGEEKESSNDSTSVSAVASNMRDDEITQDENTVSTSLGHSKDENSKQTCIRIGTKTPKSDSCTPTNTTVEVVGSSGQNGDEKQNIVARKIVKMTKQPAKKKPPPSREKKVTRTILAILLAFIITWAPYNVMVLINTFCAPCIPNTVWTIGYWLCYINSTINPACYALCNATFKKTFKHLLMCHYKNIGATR
Description: Test on inhibition of binding to muscarinic receptors (m2). The following applies: human m2 expressed in CHO cells, 0.2 nM [3H]-N-methylscopolamine, 5000 nM GTPγS, 120 minutes at room temperature. The protocol:
as §1

The target of experiment [3] is T3, muscarinic acetylcholine receptors of human m3 (Homo sapiens, UniProt P20309).
T3 construct: purchased Receptor Biology, Inc; host or cells: CHO cells
T3 sequence (P20309 whole entry): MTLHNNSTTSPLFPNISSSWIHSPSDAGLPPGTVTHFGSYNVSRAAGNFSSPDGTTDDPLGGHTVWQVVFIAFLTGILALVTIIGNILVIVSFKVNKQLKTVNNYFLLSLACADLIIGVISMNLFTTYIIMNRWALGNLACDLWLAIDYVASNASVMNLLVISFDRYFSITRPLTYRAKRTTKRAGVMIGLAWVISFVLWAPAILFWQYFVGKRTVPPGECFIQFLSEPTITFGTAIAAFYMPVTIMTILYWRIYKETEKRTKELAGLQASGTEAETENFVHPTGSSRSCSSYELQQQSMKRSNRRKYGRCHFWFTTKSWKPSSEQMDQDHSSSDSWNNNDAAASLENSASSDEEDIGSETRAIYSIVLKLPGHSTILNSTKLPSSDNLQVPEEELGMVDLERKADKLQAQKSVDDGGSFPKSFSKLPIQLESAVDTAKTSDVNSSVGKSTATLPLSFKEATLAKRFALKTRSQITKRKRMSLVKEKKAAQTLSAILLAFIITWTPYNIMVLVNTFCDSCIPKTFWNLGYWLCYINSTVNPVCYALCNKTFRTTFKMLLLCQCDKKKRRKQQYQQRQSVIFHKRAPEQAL
The experiment in a line: Test on inhibition of binding to muscarinic receptors (m3). As to conditions: human m3 expressed in CHO cells, 0.2 nM [3H]-N-methylscopolamine, 120 minutes at room temperature. Here is the method: as §1

Experiment [4] deals with T4, muscarinic acetylcholine receptors of human m4 (Homo sapiens, UniProt P08173).
T4 construct: purchased Receptor Biology, Inc; host or cells: CHO cells
T4 sequence (P08173 1-479): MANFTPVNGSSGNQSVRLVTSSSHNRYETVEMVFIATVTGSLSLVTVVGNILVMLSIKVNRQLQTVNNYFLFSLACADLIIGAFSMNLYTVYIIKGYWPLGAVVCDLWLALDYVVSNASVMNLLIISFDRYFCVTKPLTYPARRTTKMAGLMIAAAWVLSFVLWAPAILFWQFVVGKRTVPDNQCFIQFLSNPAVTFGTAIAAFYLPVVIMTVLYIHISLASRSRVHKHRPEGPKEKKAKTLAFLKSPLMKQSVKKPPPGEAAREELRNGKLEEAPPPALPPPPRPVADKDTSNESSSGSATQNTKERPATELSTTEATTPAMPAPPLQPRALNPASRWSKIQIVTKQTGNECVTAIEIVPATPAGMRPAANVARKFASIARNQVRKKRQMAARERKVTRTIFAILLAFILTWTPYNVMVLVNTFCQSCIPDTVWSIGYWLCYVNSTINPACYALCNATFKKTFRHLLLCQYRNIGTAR
The experiment in a line: Test on inhibition of binding to muscarinic receptors (m4). As to conditions: for Ki: human m4 expressed in CHO cells, 0.2 nM [3H]-N-methylscopolamine, 5000 nM GTPγS, 120 minutes at room temperature; for Selectivity (times) m1/m4: ratio of Ki m1 to Ki m4; for Selectivity (times) m2/m4: ratio of Ki m2 to Ki m4; for Selectivity (times) m3/m4: ratio of Ki m3 to Ki m4; for Selectivity (times) m5/m4: ratio of Ki m5 to Ki m4. Here is the method:
as §1

In experiment [5] the target is T5, muscarinic acetylcholine receptors of human m5 (Homo sapiens, UniProt P08912).
T5 construct: purchased Receptor Biology, Inc; host or cells: CHO cells
T5 sequence (P08912 1-532): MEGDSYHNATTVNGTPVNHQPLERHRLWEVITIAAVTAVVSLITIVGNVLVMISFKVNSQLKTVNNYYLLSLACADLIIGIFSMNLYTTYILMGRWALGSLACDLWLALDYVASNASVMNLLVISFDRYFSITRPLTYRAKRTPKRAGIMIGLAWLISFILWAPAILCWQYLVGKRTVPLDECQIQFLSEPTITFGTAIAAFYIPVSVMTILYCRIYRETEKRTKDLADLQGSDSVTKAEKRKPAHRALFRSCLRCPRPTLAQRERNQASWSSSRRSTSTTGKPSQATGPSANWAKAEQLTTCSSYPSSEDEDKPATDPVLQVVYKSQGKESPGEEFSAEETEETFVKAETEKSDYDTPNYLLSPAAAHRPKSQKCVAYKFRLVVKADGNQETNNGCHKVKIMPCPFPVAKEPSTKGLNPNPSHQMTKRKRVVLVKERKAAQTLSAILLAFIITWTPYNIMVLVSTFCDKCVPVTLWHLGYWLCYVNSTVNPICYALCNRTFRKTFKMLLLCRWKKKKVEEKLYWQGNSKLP
Description: Test on inhibition of binding to muscarinic receptors (m5). The following applies: human m5 expressed in CHO cells, 0.2 nM [3H]-N-methylscopolamine, 120 minutes at room temperature. Here is the method: as §1

In turn, `O=C(c1cccnc1)N1CCCC(CCN2CCC(n3c(=O)[nH]c4ccccc43)CC2)CC1` (single isomer, unassigned) [Example 9, (S*)-1-[1-[2-[1-(3-pyridylcarbonyl)perhydroazepin-4-yl]ethyl]piperidin-4-yl]-1,3-dihydro-2H-benzimidazol-2-one] yielded a Ki in experiment [1] of 25 nM. The same molecule displayed a Ki in experiment [2] of 31 nM. The same molecule showed a Ki in experiment [3] of 1700 nM. Besides, in experiment [4], the Ki is 1.7 nM, the “Selectivity (times) m1/m4” value is on record as 15 times, the “Selectivity (times) m2/m4” value came to 19 times and the “Selectivity (times) m3/m4” value turned out to be 1000 times. Further, in experiment [4], the “Selectivity (times) m5/m4” value stood at 270 times. In experiment [5], this molecule registered a Ki of 450 nM.

Turning to `O=C(c1cnccn1)N1CCC(CCN2CCC(n3c(=O)[nH]c4ccccc43)CC2)CC1` [Example 4, 1-[1-[2-[1-(Pyrazinylcarbonyl)piperidin-4-yl]ethyl]piperidin-4-yl]-1,3-dihydro-2H-benzimidazol-2-one], the affinity in experiment [1] corresponds to a Ki of 28 nM. The molecule further returned an inhibition constant (Ki) in experiment [2] of 73 nM. The molecule further had a Ki in experiment [3] of 7400 nM. In addition, in experiment [4], the Ki was determined as 4.5 nM, the “Selectivity (times) m1/m4” value came to 6.1 times, the “Selectivity (times) m2/m4” value amounted to 16 times and the “Selectivity (times) m3/m4” value is recorded as 1600 times. For the same molecule, in experiment [4], the “Selectivity (times) m5/m4” value was 57 times. In addition, the affinity in experiment [5] corresponds to a Ki of 260 nM.

The molecule `CC(CN1CCC(n2c(=O)[nH]c3ccccc32)CC1)C1CCN(C(=O)c2cccnc2)CC1` (stereo not drawn) [Example 12, 1-[1-[2-[1-(3-Pyridylcarbonyl)piperidin-4-yl]propyl]piperidin-4-yl]-1,3-dihydro-2H-benzimidazol-2-one] returned an inhibition constant (Ki) in experiment [1] of 22 nM. This molecule yielded an inhibition constant (Ki) in experiment [2] of 24 nM. This molecule returned a Ki in experiment [3] of 4500 nM. In addition, in experiment [4], the Ki was found to be 2.3 nM, the “Selectivity (times) m1/m4” value was 9.7 times, the “Selectivity (times) m2/m4” value is recorded as 11 times and the “Selectivity (times) m3/m4” value is reported as 2000 times. Further, the “Selectivity (times) m5/m4” value in experiment [4] is 99 times. In addition, in experiment [5], affinity was put at a Ki of 220 nM.

The values are drawn from patent US7164024B2, “Benzimidazolone derivatives” (Banyu Pharmaceutical Co., Ltd., priority 2001, dated 2007).
